In ChEMBL document CHEMBL4261488, “Do GluN2B subunit containing NMDA receptors tolerate a fluorine atom in the phenylalkyl side chain?” (Medchemcomm, 2017) one finds Ki and inhibition data, which are given here for four compounds.

The target of experiment [1] is Glutamate receptor ionotropic, NMDA 2B (Homo sapiens, UniProt Q13224). Put plainly: Displacement of [3H]-ifenprodil from GluN2B receptor (unknown origin) expressed in mouse L (tk-) cell membranes after 120 mins by scintillation counting method. Background: Loss of bound radioactivity is the signal in a displacement assay; it reports binding, not function.
The nature of experiment [2]: Displacement of [3H]-di-o-tolylguanidine from sigma 2 receptor in rat liver membranes after 120 mins by scintillation counting analysis. The class given is cell membranes, Membrane.
The species named for experiment [3] is Sus scrofa. Put plainly: Displacement of [3H]-(+)-MK-801 from PCP binding site of NMDA receptor in pig brain cortex membranes at 1 uM after 90 mins by scintillation counting method relative to control. The format is cell membranes.
Experiment [4] deals with Sigma non-opioid intracellular receptor 1 (Cavia porcellus, UniProt Q60492). The class given is cell membranes, Brain, Membrane.

Molecules are shown by their SMILES.

What is called Ki is the equilibrium dissociation constant of an inhibitor or competing ligand from its target. A high value points to weaker binding. The inhibition is the change of the read-out against control, counted positive when it falls. A lower inhibition goes with a response near the control.

Sequence of Glutamate receptor ionotropic, NMDA 2B (Q13224 whole entry): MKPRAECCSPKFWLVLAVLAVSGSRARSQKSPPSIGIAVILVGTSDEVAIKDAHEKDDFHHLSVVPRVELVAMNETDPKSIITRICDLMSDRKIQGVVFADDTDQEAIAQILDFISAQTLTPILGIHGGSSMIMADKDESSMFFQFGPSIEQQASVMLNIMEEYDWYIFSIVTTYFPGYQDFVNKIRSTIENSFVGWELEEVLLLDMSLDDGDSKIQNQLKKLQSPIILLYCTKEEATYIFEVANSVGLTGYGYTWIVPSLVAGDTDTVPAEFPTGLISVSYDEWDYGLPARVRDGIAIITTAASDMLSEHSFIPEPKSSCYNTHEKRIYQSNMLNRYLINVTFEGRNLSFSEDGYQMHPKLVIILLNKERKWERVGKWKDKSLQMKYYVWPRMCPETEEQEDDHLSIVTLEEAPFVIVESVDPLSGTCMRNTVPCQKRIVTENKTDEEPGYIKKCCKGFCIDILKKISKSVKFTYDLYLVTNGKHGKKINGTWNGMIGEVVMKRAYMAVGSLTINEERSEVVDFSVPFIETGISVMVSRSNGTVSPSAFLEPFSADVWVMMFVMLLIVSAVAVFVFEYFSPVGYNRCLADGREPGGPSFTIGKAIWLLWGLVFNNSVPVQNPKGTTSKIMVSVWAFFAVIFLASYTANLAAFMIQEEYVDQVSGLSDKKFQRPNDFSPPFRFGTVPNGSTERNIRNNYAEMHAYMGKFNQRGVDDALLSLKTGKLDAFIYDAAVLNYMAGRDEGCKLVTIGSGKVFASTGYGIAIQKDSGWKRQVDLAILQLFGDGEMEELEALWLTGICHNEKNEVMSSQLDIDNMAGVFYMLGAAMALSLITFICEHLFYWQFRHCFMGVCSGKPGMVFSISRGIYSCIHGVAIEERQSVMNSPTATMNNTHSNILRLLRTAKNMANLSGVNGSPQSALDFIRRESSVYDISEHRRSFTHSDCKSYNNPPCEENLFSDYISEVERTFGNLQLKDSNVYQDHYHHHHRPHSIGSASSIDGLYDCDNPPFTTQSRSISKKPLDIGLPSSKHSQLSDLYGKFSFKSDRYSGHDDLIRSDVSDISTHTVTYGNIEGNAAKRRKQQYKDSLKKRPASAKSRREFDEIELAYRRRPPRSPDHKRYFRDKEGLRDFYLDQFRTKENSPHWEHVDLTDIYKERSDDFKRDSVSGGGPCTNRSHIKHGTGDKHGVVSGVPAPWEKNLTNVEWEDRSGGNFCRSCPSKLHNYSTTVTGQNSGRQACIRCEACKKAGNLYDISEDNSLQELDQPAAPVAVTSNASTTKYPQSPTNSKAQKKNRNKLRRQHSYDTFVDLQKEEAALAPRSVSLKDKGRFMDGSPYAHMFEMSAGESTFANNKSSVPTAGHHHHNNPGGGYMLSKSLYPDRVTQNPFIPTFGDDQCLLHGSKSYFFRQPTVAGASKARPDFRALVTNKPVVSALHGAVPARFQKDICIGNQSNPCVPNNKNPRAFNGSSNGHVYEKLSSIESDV
Sequence of Sigma non-opioid intracellular receptor 1 (Q60492 whole entry): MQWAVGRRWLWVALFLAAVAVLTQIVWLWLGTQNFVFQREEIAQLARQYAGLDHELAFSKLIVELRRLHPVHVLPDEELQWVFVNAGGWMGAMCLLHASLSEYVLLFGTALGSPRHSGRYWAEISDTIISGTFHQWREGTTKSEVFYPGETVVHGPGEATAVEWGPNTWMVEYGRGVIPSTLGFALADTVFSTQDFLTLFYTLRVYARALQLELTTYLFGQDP

`FC(CNC1CCc2ccccc2CC1)Cc1ccccc1` (stereo not given): the Ki in experiment [1] is 17 nM; in experiment [2], 14 nM; in experiment [4] it was 54 nM. In addition, the inhibition in experiment [3] came to 2%.
Take `COc1ccc2c(c1)CC[C@H](NCCCc1ccccc1)C[C@@H]2O` (relative stereo): in experiment [1], the affinity, expressed as Ki, was 16 nM. This lies in the double-digit nanomolar range.
Take `FC(CCc1ccccc1)CNC1CCc2ccccc2CC1` (stereo not given): the Ki came out at 27 nM in experiment [1], 19 nM in experiment [2] and 82 nM in experiment [4]. This compound had an inhibition in experiment [3] of 3%.
Take `COc1ccc2c(c1)CCC(NCCCc1ccccc1)CC2` (stereo not given): the Ki in experiment [1] came to 11 nM.
